Measurements taken from ChEMBL document CHEMBL2074445, “Effect of organic isothiocyanates on the P-glycoprotein- and MRP1-mediated transport of daunomycin and vinblastine” (Pharm Res, 2002).

Key:
Assay type in all cases: functional, cell-based
[1] = target: T1, Multidrug resistance-associated protein 1 (Homo sapiens, UniProt P33527); experiment: TP_TRANSPORTER: increase in Vinblastine intracellular accumulation (Vinblastine: 0.05 uM, Phenylbutyl isothiocyanate: 100 uM) in PANC-1 cells; conditions: panc-1, 100 µM
T1 sequence (P33527 whole entry): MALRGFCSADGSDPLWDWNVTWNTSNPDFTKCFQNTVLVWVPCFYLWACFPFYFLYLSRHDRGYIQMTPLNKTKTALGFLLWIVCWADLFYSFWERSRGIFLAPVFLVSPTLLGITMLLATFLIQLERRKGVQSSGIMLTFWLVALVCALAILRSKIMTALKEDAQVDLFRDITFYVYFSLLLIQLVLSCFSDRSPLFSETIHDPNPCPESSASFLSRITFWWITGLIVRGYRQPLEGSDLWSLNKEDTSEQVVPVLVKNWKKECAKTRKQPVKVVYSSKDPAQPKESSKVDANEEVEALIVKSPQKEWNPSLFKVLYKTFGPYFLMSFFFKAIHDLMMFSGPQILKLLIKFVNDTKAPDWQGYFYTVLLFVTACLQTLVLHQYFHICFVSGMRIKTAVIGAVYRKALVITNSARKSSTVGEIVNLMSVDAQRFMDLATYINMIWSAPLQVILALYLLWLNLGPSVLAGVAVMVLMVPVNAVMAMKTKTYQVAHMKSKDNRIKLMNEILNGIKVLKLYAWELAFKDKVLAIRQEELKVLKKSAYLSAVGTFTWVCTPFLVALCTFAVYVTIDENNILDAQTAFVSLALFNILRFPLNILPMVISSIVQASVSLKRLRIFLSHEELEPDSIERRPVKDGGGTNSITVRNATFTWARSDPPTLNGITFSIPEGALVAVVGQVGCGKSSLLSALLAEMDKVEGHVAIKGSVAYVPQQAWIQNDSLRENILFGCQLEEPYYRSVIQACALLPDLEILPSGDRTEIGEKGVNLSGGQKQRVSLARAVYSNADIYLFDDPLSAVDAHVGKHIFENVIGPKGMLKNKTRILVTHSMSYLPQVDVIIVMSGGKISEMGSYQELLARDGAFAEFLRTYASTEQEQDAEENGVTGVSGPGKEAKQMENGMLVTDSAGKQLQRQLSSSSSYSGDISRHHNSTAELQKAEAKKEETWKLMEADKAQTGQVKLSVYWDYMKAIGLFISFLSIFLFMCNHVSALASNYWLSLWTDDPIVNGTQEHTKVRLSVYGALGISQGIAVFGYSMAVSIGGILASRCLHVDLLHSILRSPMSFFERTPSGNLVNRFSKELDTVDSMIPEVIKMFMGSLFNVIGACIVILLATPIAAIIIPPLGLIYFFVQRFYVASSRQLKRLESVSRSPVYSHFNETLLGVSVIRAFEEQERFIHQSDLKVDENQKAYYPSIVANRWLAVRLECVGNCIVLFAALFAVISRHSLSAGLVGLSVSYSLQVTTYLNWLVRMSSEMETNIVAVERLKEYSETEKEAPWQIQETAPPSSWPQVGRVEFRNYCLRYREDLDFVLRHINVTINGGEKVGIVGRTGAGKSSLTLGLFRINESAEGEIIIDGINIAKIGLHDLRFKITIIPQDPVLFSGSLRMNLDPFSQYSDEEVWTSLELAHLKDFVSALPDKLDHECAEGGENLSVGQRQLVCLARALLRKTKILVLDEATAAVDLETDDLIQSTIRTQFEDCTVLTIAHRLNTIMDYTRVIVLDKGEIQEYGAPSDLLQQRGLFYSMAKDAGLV

[2] = target: T2, ATP-dependent translocase ABCB1 (Homo sapiens, UniProt P08183); experiment: TP_TRANSPORTER: increase in Daunomycin intracellular accumulation (Daunomycin: 0.05 uM, Benzylisothiocyanate: 100 uM) in MCF-7/ADR cells; conditions: nci/adr-res
T2 sequence (P08183 whole entry): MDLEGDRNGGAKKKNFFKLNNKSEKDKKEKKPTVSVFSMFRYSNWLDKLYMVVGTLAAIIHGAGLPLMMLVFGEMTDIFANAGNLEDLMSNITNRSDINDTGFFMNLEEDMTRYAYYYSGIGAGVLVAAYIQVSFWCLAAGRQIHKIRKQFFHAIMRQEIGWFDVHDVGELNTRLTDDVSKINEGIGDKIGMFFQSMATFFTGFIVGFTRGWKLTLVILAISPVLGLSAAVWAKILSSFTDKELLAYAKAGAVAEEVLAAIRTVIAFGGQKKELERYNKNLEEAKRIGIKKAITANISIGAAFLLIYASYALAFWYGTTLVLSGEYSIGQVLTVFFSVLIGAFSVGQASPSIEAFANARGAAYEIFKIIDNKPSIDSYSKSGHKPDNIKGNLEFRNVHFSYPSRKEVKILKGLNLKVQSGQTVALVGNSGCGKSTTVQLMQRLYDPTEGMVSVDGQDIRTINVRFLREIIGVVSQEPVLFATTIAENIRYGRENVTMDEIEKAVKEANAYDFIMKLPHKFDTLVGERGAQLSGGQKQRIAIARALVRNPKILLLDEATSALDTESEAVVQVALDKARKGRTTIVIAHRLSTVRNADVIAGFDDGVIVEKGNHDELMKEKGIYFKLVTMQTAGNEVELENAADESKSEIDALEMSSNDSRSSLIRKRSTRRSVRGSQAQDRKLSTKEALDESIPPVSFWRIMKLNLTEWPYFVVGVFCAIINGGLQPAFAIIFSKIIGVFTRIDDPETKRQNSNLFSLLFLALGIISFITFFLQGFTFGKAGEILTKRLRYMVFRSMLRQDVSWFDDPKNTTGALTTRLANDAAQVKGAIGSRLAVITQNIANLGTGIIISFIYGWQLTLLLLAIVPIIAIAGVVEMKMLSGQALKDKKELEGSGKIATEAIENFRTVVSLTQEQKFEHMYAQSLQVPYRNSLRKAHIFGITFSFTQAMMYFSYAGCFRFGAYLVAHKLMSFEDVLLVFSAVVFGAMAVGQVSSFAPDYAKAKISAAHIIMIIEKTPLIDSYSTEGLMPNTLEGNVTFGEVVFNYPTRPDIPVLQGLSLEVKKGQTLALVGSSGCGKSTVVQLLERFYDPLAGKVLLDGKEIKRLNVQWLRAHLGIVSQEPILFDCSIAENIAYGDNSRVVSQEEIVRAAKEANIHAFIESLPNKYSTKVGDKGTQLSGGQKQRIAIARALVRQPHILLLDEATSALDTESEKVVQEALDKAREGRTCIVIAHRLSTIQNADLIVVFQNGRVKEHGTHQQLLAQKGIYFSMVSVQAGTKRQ

[3] = target: T1, Multidrug resistance-associated protein 1; experiment: TP_TRANSPORTER: increase in Daunomycin intracellular accumulation (Daunomycin: 0.05 uM, NITC: 100 uM) in PANC-1 cells; conditions: panc-1, 100 µM
[4] = target: T2, ATP-dependent translocase ABCB1; experiment: TP_TRANSPORTER: increase in Daunomycin intracellular accumulation (Daunomycin: 0.05 uM, NITC: 100 uM) in MCF-7 ADR cells; conditions: nci/adr-res
[5] = target: T1, Multidrug resistance-associated protein 1; experiment: TP_TRANSPORTER: increase in Vinblastine intracellular accumulation (Vinblastine: 0.05 uM, Phenylhexyl isothiocyanate: 100 uM) in PANC-1 cells; conditions: panc-1, 100 µM
[6] = target: T2, ATP-dependent translocase ABCB1; experiment: TP_TRANSPORTER: increase in Vinblastine intracellular accumulation ([…], Phenylhexyl isothiocyanate: 100 uM) in MCF-7/ADR cells; conditions: nci/adr-res
[7] = target: T1, Multidrug resistance-associated protein 1; experiment: TP_TRANSPORTER: increase in Daunomycin intracellular accumulation (Daunomycin: 0.05 uM, Phenylhexyl isothiocyanate: 100 uM) in PANC-1 cells; conditions: panc-1, 100 µM

S=C=NCCCCc1ccccc1 [PHENYLBUTYL ISOTHIOCYANATE]
Activity [1]: 2.5 fold

S=C=NCc1ccccc1 [BENZYL ISOTHIOCYANATE]
Activity [2]: 2.5 fold

S=C=Nc1cccc2ccccc12 [1-NAPHTHYLISOTHIOCYANATE]
Activity [3]: 3 fold
Activity [4]: 4 fold

S=C=NCCCCCCc1ccccc1 [PHENYLHEXYL ISOTHIOCYANATE]
Activity [5]: 3 fold
Activity [6]: 10 fold

S=C=NCCc1ccccc1 [PHENETHYLISOTHIOCYANATE]
Activity [7]: 2 fold
